Measurements: US9067911B2, “Piperidine derivatives” (Hoffmann-La Roche Inc., priority 2009, dated 2015)
Structures can show the parent of a compound that is named as a salt.

Biological target: T1, mGlyT-1b (Mus musculus, UniProt P28571)
T1 construct: host or cells: Flp-in-CHO
T1 sequence (P28571 1-651 isoform P28571-2): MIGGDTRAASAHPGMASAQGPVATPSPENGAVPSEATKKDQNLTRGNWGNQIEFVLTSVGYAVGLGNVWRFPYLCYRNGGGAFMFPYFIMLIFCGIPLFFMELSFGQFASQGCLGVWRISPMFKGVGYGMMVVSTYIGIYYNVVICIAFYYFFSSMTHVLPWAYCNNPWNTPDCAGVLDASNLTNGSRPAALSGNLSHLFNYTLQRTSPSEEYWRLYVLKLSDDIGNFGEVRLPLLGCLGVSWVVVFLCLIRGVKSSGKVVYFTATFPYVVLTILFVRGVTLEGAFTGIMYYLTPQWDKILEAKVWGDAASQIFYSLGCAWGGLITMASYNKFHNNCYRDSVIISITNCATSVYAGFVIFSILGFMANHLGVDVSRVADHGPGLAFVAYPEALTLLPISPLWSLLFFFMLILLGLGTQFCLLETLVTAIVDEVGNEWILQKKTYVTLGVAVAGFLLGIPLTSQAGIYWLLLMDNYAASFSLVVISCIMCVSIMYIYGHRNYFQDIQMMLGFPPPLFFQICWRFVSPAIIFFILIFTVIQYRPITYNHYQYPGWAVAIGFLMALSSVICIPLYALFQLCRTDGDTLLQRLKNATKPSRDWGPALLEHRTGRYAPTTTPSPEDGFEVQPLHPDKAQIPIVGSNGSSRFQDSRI
Assay: Glycine uptake inhibition assay (mGlyT-1b)
Format: cell-based
Details: [3H]-glycine uptake, Flp-in-CHO cells stably transfected with mGlyT1b cDNA, 20 min preincubation at 22° C.
Procedure: Nutrient mixture F-12 (Gibco Life-technologies), fetal bovine serum (FBS) 5%, (Gibco life technologies), Penicillin/Streptomycin 1% (Gibco life technologies), Hygromycin 0.6 mg/ml (Gibco life technologies), Glutamine 1 mM Gibco life technologies)
150 mM NaCl, 10 mM Hepes-Tris, pH 7.4, 1 mM CaCl2, 2.5 mM KCl, 2.5 mM MgSO4, 10 mM (+) D-glucose.
Flp-in™-CHO (Invitrogen Cat n° R758-07) cells stably transfected with mGlyT1b cDNA.
Glycine Uptake Inhibition Assay (mGlyT-1b)
On day 1 mammalian cells, (Flp-in™-CHO), transfected with mGlyT-1b cDNA, were plated at the density of 40,000 cells/well in complete F-12 medium, without hygromycin in 96-well culture plates. On day 2, the medium was aspirated and the cells were washed twice with uptake buffer (UB). The cells were then incubated for 20 min at 22° C. with either (i) no potential competitor, (ii) 10 mM non-radioactive glycine, (iii) a concentration of a potential inhibitor. A range of concentrations of the potential inhibitor was used to generate data for calculating the concentration of inhibitor resulting in 50% of the effect (e.g. IC50, the concentration of the competitor inhibiting glycine uptake of 50%). A solution was then immediately added containing [^3H]-glycine 60 nM (11-16 Ci/mmol) and 25 μM non-radioactive glycine. The plates were incubated with gentle shaking and the reaction was stopped by aspiration of the mixture and washing (three times) with ice-cold UB. The cells were lysed with scintillation liquid, shaken 3 hours and the radioactivity in the cells was counted using a scintillation counter.

Q: For `COc1cccc(C2(NC(=O)c3c(OC)cc(C(F)(F)F)cc3SC)CCCN(C)C2)c1` (racemic) [Example 91, rac-2-Methoxy-N-[3-(3-methoxy-phenyl)-1-methyl-piperidin-3-yl]-6-methylsulfanyl-4-trifluoromethyl-benzamide], which IC50 is on record?
A: 113 nM

Q: For `COc1cc(C(F)(F)F)cc(SC)c1C(=O)NC1(c2cccc(F)c2)CCCN(C)C1` (racemic) [Example 93, rac-N-[3-(3-Fluoro-phenyl)-1-methyl-piperidin-3-yl]-2-methoxy-6-methylsulfanyl-4-trifluoromethyl-benzamide formic acid], which IC50 is on record?
A: 47.9 nM

Q: With `COc1cc(C(F)(F)F)cc(SC)c1C(=O)NC1(c2ccc(F)c(Cl)c2)CCCN(C)C1` (racemic) [Example 94, rac-N-[3-(3-Chloro-4-fluoro-phenyl)-1-methyl-piperidin-3-yl]-2-methoxy-6-methylsulfanyl-4-trifluoromethyl-benzamide] as the compound, how does the IC50 read?
A: 59.6 nM

Q: For `COc1cc(C(F)(F)F)cc(SC)c1C(=O)NC1(c2ccc(F)c(F)c2)CCCN(C)C1` (racemic) [Example 95, rac-N-[3-(3,4-Difluoro-phenyl)-1-methyl-piperidin-3-yl]-2-methoxy-6-methylsulfanyl-4-trifluoromethyl-benzamide], which IC50 is on record?
A: 51.5 nM

Q: Which IC50 does the source give for `COc1cc(C(F)(F)F)cc(SC)c1C(=O)NC1(c2cccc(C)c2)CCCN(C)C1` (racemic) [Example 96, rac-2-Methoxy-6-methylsulfanyl-N-(1-methyl-3-m-tolyl-piperidin-3-yl)-4-trifluoromethyl-benzamide] here?
A: 68.2 nM

Q: `COc1cc(C(F)(F)F)cc(SC)c1C(=O)NC1(c2ccc(F)c(C)c2)CCCN(C)C1` (racemic) [Example 97, rac-N-[3-(4-Fluoro-3-methyl-phenyl)-1-methyl-piperidin-3-yl]-2-methoxy-6-methylsulfanyl-4-trifluoromethyl-benzamide] was tested. Which IC50 did it give?
A: 185 nM

Q: With `COc1cc(C(F)(F)F)cc(SC)c1C(=O)NC1(c2cc(F)cc(F)c2)CCCN(C)C1` (racemic) [Example 98, rac-N-[3-(3,5-Difluoro-phenyl)-1-methyl-piperidin-3-yl]-2-methoxy-6-methylsulfanyl-4-trifluoromethyl-benzamide] as the compound, how does the IC50 read?
A: 62.2 nM

Q: For `COc1cc(C(F)(F)F)cc(SC)c1C(=O)NC1(c2ccccc2)CN(C)CC(C)(C)C1` (racemic) [Example 99, rac-2-Methoxy-6-methylsulfanyl-4-trifluoromethyl-N-(1,5,5-trimethyl-3-phenyl-piperidin-3-yl)-benzamide hydrochloride], which IC50 is on record?
A: 36.6 nM

Q: For `CCc1c(C(=O)NC2(c3ccccc3)CCCN(C)C2)ccc(C(F)(F)F)c1C` (racemic) [Example 103, rac-2-Ethyl-3-methyl-N-(1-methyl-3-phenyl-piperidin-3-yl)-4-trifluoromethyl-benzamide formic acid], which IC50 is on record?
A: 77.3 nM

Q: Which IC50 does the source give for `COc1cc(C(F)(F)F)cc(SC)c1C(=O)NC1(c2ccccc2)CCCN(C(C)(C)C)C1` (racemic) [Example 104, rac-N-(1-tert-Butyl-3-phenyl-piperidin-3-yl)-2-methoxy-6-methylsulfanyl-4-trifluoromethyl-benzamide] here?
A: 173 nM

Q: With `COc1cc(C(F)(F)F)cc(SC)c1C(=O)NC1(c2ccccc2)CCC2(CC2)N(C)C1` (racemic) [Example 105, rac-2-Methoxy-N-(4-methyl-6-phenyl-4-aza-spiro[2.5]oct-6-yl)-6-methylsulfanyl-4-trifluoromethyl-benzamide] as the compound, how does the IC50 read?
A: 29.3 nM

Q: `COc1cc(C(F)(F)F)cc(SC)c1C(=O)N[C@@]1(c2ccccc2)C[C@H](O)CN(C)C1` (racemic) [Example 107, N-((3R,5S) or (3S,5R)-5-Hydroxy-1-methyl-3-phenyl-piperidin-3-yl)-2-methoxy-6-methylsulfanyl-4-trifluoromethyl-benzamide hydrochloride] was tested. Which IC50 did it give?
A: 31.2 nM

Q: For `COc1cc(C(F)(F)F)cc(SC)c1C(=O)N[C@]1(c2ccccc2)C[C@@H](C)CN(C)C1` (racemic) [Example 121, N-((3S,5R) or (3R,5S)-1,5-Dimethyl-3-phenyl-piperidin-3-yl)-2-methoxy-6-methylsulfanyl-4-trifluoromethyl-benzamide], which IC50 is on record?
A: 16.5 nM

Q: For `CCc1cc(C(F)(F)F)ccc1C(=O)N[C@@]1(c2ccccc2)C[C@H](C)CN(C)C1` (racemic) [Example 124, N-((3R,5S) or (3S,5R)-1,5-Dimethyl-3-phenyl-piperidin-3-yl)-2-ethyl-4-trifluoromethyl-benzamide], which IC50 is on record?
A: 12.7 nM

Q: For `CCc1cc(C(F)(F)F)ccc1C(=O)N[C@@]1(c2ccccc2)C[C@H](OC)CN(C)C1` (racemic) [Example 125, 2-Ethyl-N-((3R,5S) or (3S,5R)-5-methoxy-1-methyl-3-phenyl-piperidin-3-yl)-4-trifluoromethyl-benzamide], which IC50 is on record?
A: 176 nM

Q: Which IC50 does the source give for `CO[C@@H]1CN(C)C[C@](NC(=O)c2ccc(C(F)(F)F)cc2C2CC2)(c2ccccc2)C1` (racemic) [Example 126, 2-Cyclopropyl-N-((3R,5S) or (3S,5R)-5-methoxy-1-methyl-3-phenyl-piperidin-3-yl)-4-trifluoromethyl-benzamide] here?
A: 31.2 nM

Q: With `COc1cc(C(F)(F)F)cc(OC)c1C(=O)N[C@@]1(c2ccccc2)CCCN(C)C1` (racemic) [Example 128, 2,6-Dimethoxy-N-(R or (S)-1-methyl-3-phenyl-piperidin-3-yl)-4-trifluoromethyl-benzamide] as the compound, how does the IC50 read?
A: 126 nM

Q: How did the IC50 turn out when `Cl.[2H]C([2H])([2H])N1CCC[C@@](NC(=O)c2c(OC)cc(C(F)(F)F)cc2SC)(c2ccccc2)C1` (single isomer, unassigned) [Example 63, [2H-methyl]-2-Methoxy-N—(R) or (S)-1-methyl-3-phenyl-piperidin-3-yl)-6-methylsulfanyl-4-trifluoromethyl-benzamide hydrochloride] was run?
A: 10 nM

Q: `COc1cc(C(F)(F)F)cc(SC)c1C(=O)NC1(c2ccccc2F)CCCN(C)C1` (single isomer, unassigned) [Example 111, N-[(R or S)-3-(2-Fluoro-phenyl)-1-methyl-piperidin-3-yl]-2-methoxy-6-methylsulfanyl-4-trifluoromethyl-benzamide] was tested. Which IC50 did it give?
A: 57.3 nM

Q: How did the IC50 turn out when `COc1cc(C(F)(F)F)cc(SC)c1C(=O)NC1(c2cc(F)ccc2F)CCCN(C)C1` (single isomer, unassigned) [Example 113, N-[(R or S)-3-(2,5-Difluoro-phenyl)-1-methyl-piperidin-3-yl]-2-methoxy-6-methylsulfanyl-4-trifluoromethyl-benzamide] was run?
A: 56.4 nM

Q: With `CCc1cc(C(F)(F)F)ccc1C(=O)NC1(c2ccccc2)CCCN(C)C1` (single isomer, unassigned) [Example 115, 2-Ethyl-N-((R or S)-1-methyl-3-phenyl-piperidin-3-yl)-4-trifluoromethyl-benzamide hydrochloride] as the compound, how does the IC50 read?
A: 25.9 nM

Q: For `COc1cc(C(F)(F)F)cc(SC)c1C(=O)NC1(c2ccccc2)CN(C)CC(C)(C)C1` (single isomer, unassigned) [Example 116, 2-Methoxy-6-methylsulfanyl-4-trifluoromethyl-N-((S or R)-1,5,5-trimethyl-3-phenyl-piperidin-3-yl)-benzamide], which IC50 is on record?
A: 35.8 nM

Q: Which IC50 does the source give for `COc1cc(C(F)(F)F)cc(SC)c1C(=O)N[C@]1(c2ccccc2)CC[C@H](C)N(C)C1` (single isomer, unassigned) [Example 117, N-((3S,6S) or (3R,6R)-1,6-Dimethyl-3-phenyl-piperidin-3-yl)-2-methoxy-6-methylsulfanyl-4-trifluoromethyl-benzamide] here?
A: 32.4 nM

Q: `COc1cc(C(F)(F)F)cc(SC)c1C(=O)N[C@@]1(c2ccccc2)CC[C@@H](C)N(C)C1` (single isomer, unassigned) [Example 119, N-((3R,6R) or (3S,6S)-1,6-Dimethyl-3-phenyl-piperidin-3-yl)-2-methoxy-6-methylsulfanyl-4-trifluoromethyl-benzamide] was tested. Which IC50 did it give?
A: 13.9 nM

Q: Which IC50 does the source give for `COc1cc(C(F)(F)F)cc(SC)c1C(=O)N[C@@]1(c2ccccc2)CC[C@H](C)N(C)C1` (single isomer, unassigned) [Example 120, N-((3R,6S) or (3S,6R)-1,6-Dimethyl-3-phenyl-piperidin-3-yl)-2-methoxy-6-methylsulfanyl-4-trifluoromethyl-benzamide] here?
A: 12.7 nM
